Laboratory results reported in patent US8247400B2, “Cephem compounds useful for the treatment of bacterial infections” (priority 2009, dated 2012).
“And” between values parts separate entries of the source, which are not always exact repeats. Identical values can stand only once.

Experiments:
[1] = system: Escherichia coli; test: Agar diffusion antibacterial activity; assay type: cell-based; settings: for Zone of Inhibition (mm) (average of 3 plates): Compound A approx. 22 μg/disk, Gentamicin 10 mcg per disk, 30-35° C., 2 days
Method: (§1) The antibiotic activity of Compound A (as the hydrochloride salt) was tested by Agar Diffusion against the following bacterial strains: Staphylococcus aureus, Salmonella typhimurium, Escherichia coli and Pseudomonas aureus. The antibiotic activity of Compound A was compared to that observed for the antibiotic gentamicin (positive control antibiotic). 0.85% saline solution was used as a negative control. The protocol is provided below. A solution containing Compound A hydrochloride, 20 ug per disk, was added to BBL™ Sensi-Disc™. Fifteen Petri dish filled with an agar medium were prepared a day before their use. These were utilized for testing of 5 microorganisms (4 bacterial species including Staphylococcus aureus, Salmonella typhimurium, Pseudomonas aeruginosa, and Escherichia coli, and one fungus (Candida albicans). Triplicate plates were then streaked with each specific microorganism. Twelve plates to be utilized for antibacterial testing were applied with positive control and negative control discs. Positive control discs are impregnated with gentamycin and are available from Becton, Dickinson and Co (ready to be used cartridges, “BBL™ Sensi-Disc™ Antimicrobial Susceptibility Test Discs”). Negative control discs were prepared by soaking dry disks with normal saline solution. These discs were applied by means of a BBL™ dispenser, using aseptic precautions. The remaining (three) plates to be utilized for antifungal properties were also applied with positive and negative controls; however, in this case positive control discs were impregnated with nystatin (available as BBL™ Taxo™ Nystatin Discs Cartridge from BD & Co). Fifteen dry discs (identical to those of positive and negative control discs but with unique identification print on one side, “NY”) were soaked with a solution of Compound A hydrochloride for about 5 minutes. The discs were then carefully transferred (using a sterile forceps) to a sterile empty Petri dish to decant off any excess test solution. Then one disc was applied to each of fifteen plates that were previously applied with positive and negative controls. The approximate loading of compound A was 22 μg/disk. Triplicate plates for each microorganism were assembled together and properly labeled prior to incubation. Plates for antibacterial testing were incubated at 30-35° C. (for 2 days) while for antifungal testing plates were incubated at 24° C. Plates were read for zones of inhibition using Vernier calipers.

[2] = system: Staphylococcus aureus; test: Agar diffusion antibacterial activity; assay type: cell-based; settings: for Zone of Inhibition (mm) (average of 3 plates): Compound A approx. 22 μg/disk, Gentamicin 10 mcg per disk, 30-35° C., 2 days
Method: as §1

[3] = Agar diffusion antibacterial activity; assay type: cell-based; settings: Pseudomonas aureus; for Zone of Inhibition (mm) (average of 3 plates): Compound A approx. 22 μg/disk, Gentamicin 10 mcg per disk, 30-35° C., 2 days
Method: as §1

[4] = system: Salmonella typhimurium; test: Agar diffusion antibacterial activity; assay type: cell-based; settings: for Zone of Inhibition (mm) (average of 3 plates): Compound A approx. 22 μg/disk, Gentamicin 10 mcg per disk, 30-35° C., 2 days
Method: as §1

[5] = Room temperature stability of the 4.20 mg/ml Compound A dosage form (Table 8); assay type: physicochemical
Method: An example of a dosage form containing 4.20 mg/ml of Compound A that is suitable for parenteral (e.g., IM or IV) administration is provided in Table 8. The propylene glycol, PEG-300 and ethanol were added to a volumetric flask and mixed. The acetate buffer pH 5.0 (1M) was then added q.s to volume and the contents of the flask were mixed. Compound A was added to a separate clear dry volumetric flask. Approximately ⅓ of the total propylene glycol, PEG-300 and ethanol mixture was added and the resulting mixture was shaken vigorously for 2 minutes. The remainder of the mixture was then added to the flask to make up the volume. The contents were mixed by gentle shaking or by sonication until a clear solution was obtained. The solution was then filtered through a 0.22μ filter (Millex® GV) using a sterile disposable syringe or vial.

[6] = Solubility of Compound A in solvent mixtures; assay type: physicochemical
[7] = system: human peripheral blood lymphocytes (HPBL); test: In vitro mammalian chromosome aberration test; assay type: cell-based; settings: vehicle DMSO, maximum concentration 5000 μg/ml
Source text: [B] In Vitro Mammalian Chromosome Aberration Test
The purpose of this study was to evaluate the clastogenic potential of a test article based upon its ability to induce chromosome aberrations in human peripheral blood lymphocytes (HPBL).
Negative: Test Article Solvent (or Vehicle)
Positive: Mitomycin C (MMC, CAS number 50-07-7)
Cyclophosphamide (CP, CAS number 6055-19-2)

[8] = system: rats (CD® strain); test: Four-week intravenous toxicity study in rats; assay type: in vivo; settings: 9 mg/kg/day, over a period of 28 days
Method: The potential toxicity of an intravenously administered formulation of Compound A (average concentration analysis=95.6%) was studied for four weeks in rats (CD® strain). The vehicle (L-arginine dissolved in saline, 21.7 mg/ml), control (saline solution) and test solutions were administered by an intravenous infusion in the cannulated femoral vein through a dosing port. The dose was administered once per day at approximately the same time (±2 hours) each day throughout the duration of the study. The dose volume was 10 ml/kg per day. All doses were administered using a syringe infusion pump set for the appropriate infusion rate to deliver the proper dose volume over the required infusion duration of 15 minutes. All animals across all groups were examined prior to exposure and all the main study survivors were examined again at the end of study. […] Detailed clinical examinations were made for each animal daily during treatment (approx 30 to 60 minutes post-dosing).

[9] = system: thymidine kinase locus of L5178Y mouse lymphoma cells; settings: vehicle DMSO, maximum concentration 5000 μg/ml
Method: In vitro genotoxicity studies were conducted as a mouse lymphoma study and a chromosomal aberration test. The vehicle was DMSO and the maximum concentration to be tested was 5000 μg/ml for both studies.
In Vitro Mammalian Cell Gene Mutation Test
(L5178Y/TK^+/− Mouse Lymphoma Assay)
The purpose of this study was to evaluate the genotoxic potential of the test article based on quantitation of forward mutations at the thymidine kinase locus of L5178Y mouse lymphoma cells and the sizing of the resulting colonies.
Negative: Test article solvent (or vehicle)
Positive: Methyl methanesulfonate (MMS)
7,12-dimethylbenz(a)anthracene (DMBA)

[10] = Room temperature stability of the 1.0 mg/ml parenteral dosage form with L-arginine (Table 10); assay type: physicochemical; settings: for % Assay / pH: 1 mg/ml solution with L-arginine in normal saline (Table 10)
Method: An example of a dosage form containing 1.0 mg/ml of Compound A hydrochloride that is suitable for parenteral (e.g., IM or IV) administration is provided in Table 10. The L-arginine was dissolved in saline and the pH of the solution was adjusted to ˜8.0 using 0.05N HCl. Compound A was then added and the pH of the solution was adjusted to ˜7.40. The solution was then filtered through a 0.22 μm filter.

[11] = pH solubility profile of Compound A in USP buffers at room temperature; assay type: physicochemical; settings: for Approximate Solubility: room temperature
Method: Testing was conducted using a reciprocating platform shaker (Heidolph® Promax 1020).

[12] = versus Gentamicin (10 mcg per disk)
[13] = 4.20 mg/ml Compound A in propylene glycol/ethanol/PEG-300/acetate buffer pH 5.0 (Table 8), batches 1-4
[14] = pH 7.0 (0.1 M Potassium Phosphate)
[15] = pH 9.0 (0.1 M Potassium phosphate)

Compound: CCO/N=C(\C(=O)N[C@@H]1C(=O)N2C(C(=O)[O-])=C(Sc3nc(-c4cc[n+](C)cc4)cs3)CS[C@H]12)c1nsc(NC(C)=O)n1.Cl [Compound A hydrochloride, (6R,7R)-7-[[(2Z)-2-(ethoxyimino)-2-[5-(acetamido)-1,2,4-thiadiazol-3-yl]acetyl]amino]-3-[[4-(1-methylpyridini-1-ium-4-yl)-1,3-thiazol-2-yl]sulfanyl]-8-oxo-5-thia-1-azabicylo[4.2.0]oct-2-ene-2-carboxylate hydrochloride]
- Zone of Inhibition (mm) (average of 3 plates) [1]: 23.82 mm
- antibacterial activity relative to Gentamicin [1, 12]: 118%
- Zone of Inhibition (mm) (average of 3 plates) [2]: 36.71 mm
- antibacterial activity relative to Gentamicin [2, 12]: 173%
- antibacterial activity (in words) [3]: moderate activity
- Zone of Inhibition (mm) (average of 3 plates) [3]: 9.68 mm
- Zone of Inhibition (mm) (average of 3 plates) [4]: 21.12 mm
- antibacterial activity relative to Gentamicin [4, 12]: 117%

Compound: CCO/N=C(\C(=O)N[C@@H]1C(=O)N2C(C(=O)[O-])=C(Sc3nc(-c4cc[n+](C)cc4)cs3)CS[C@H]12)c1nsc(NC(C)=O)n1 [Compound A, (6R,7R)-7-[[(2Z)-2-(ethoxyimino)-2-[5-(acetamido)-1,2,4-thiadiazol-3-yl]acetyl]amino]-3-[[4-(1-methylpyridinium-4-yl)-1,3-thiazol-2-yl]sulfanyl]-8-oxo-5-thia-1-azabicylo[4.2.0]oct-2ene-2-carboxylate]
- Initial Assay (%) [5, 13]: 99.2% and 101.3% and 100.5% and 98.5%
- Initial pH [5, 13]: 6.06 and 6.08 and 6.13
- Final Assay (%) ([5]; 4.20 mg/ml Compound A solution (Table 8), 3 hrs at RT, batch 4): 96.9 (3 hrs at RT) %
- Final Assay (%) ([5]; 4.20 mg/ml Compound A solution (Table 8), 5 hrs at RT, batches 2 and 3): 97.9 (5 hrs at RT) % and 95.6 (5 hrs at RT) %
- Final pH ([5]; 4.20 mg/ml Compound A solution (Table 8), batch 4, 3 hrs at RT): 5.99
- Approximate Solubility ([6]; 8% Propylene Glycol, 2% Ethanol, 2% PEG-300, 5% 1-Methyl-2-pyrrolidinone, 83% Acetate buffer pH 5 (1M)): 2.0 mg/mL
- Approximate Solubility ([6]; 8% Propylene Glycol, 2% Ethanol, 2% PEG-300, 88% Acetate buffer pH 5 (1M)): 1.8 mg/mL
- Approximate Solubility ([6]; 8% Propylene Glycol, 2% Ethanol, 5% Benzyl alcohol, 85% Acetate buffer pH 5 (1M) (first entry, r11)): 1.5 mg/mL
- Approximate Solubility ([6]; 8% Propylene Glycol, 2% Ethanol, 5% Benzyl alcohol, 85% Acetate buffer pH 5 (1M) (second entry, r17)): 3.5 mg/mL
- Approximate Solubility ([6]; 8% Propylene Glycol, 2% Ethanol, 90% Acetate buffer pH 5 (1M)): 1.5 mg/mL
- Approximate Solubility ([6]; 8% Propylene Glycol, 2% PEG-300, 5% Benzyl alcohol, 85% Acetate buffer pH 5 (1M)): 4.0 mg/mL
- Approximate Solubility ([6]; 8% Propylene Glycol, 9% PEG-300, 83% Acetate buffer pH 5 (1M)): 1.1 mg/mL
- Approximate Solubility ([6]; 10% Sodium benzoate in Normal Saline, pH 6.5): 4.2 mg/mL
- Approximate Solubility ([6]; 10% Sodium benzoate in water, pH 6.3): 4.2 mg/mL
- Approximate Solubility ([6]; 40% Propylene Glycol, 2.5% Ethanol, 57.5% Acetate buffer pH 5): 4.2 mg/mL
- Approximate Solubility ([6]; 60% Propylene Glycol, 2.5% Ethanol, 37.5% Acetate buffer pH 5): >25 mg/mL
- Approximate Solubility ([6]; Dimethyl sulfoxide (DMSO)): 212 mg/mL
- Approximate Solubility ([6]; Ethanol): 1.5 mg/mL
- Approximate Solubility ([6]; Methanol): 400 mg/mL
- Approximate Solubility ([6]; Sterile water for injection USP): 0.8 mg/mL
- genotoxicity result, chromosomal aberration study using human lymphocytes [7]: negative
- adverse clinical events [8]: did not show any adverse clinical events
- genotoxicity result, mouse lymphoma study [9]: negative
- % Assay ([10]; 2 hours): 95.3%
- pH ([10]; 2 hours): 7.34
- % Assay ([10]; 4 hours): 95.1%
- pH ([10]; 4 hours): 7.41
- % Assay ([10]; Initial): 95.7%
- pH ([10]; Initial): 7.35
- stability of the solution (in words) ([10]; solution containing 1 mg/ml of Compound A): stable
- Description ([11]; pH 1.0 (0.2 M KCl—HCl)): Solution
- Approximate Solubility ([11]; pH 1.0 (0.2 M KCl—HCl)): 0.5 mg/mL
- Description ([11]; pH 3.0 (0.1 M Sodium acetate)): Solution
- Approximate Solubility ([11]; pH 3.0 (0.1 M Sodium acetate)): 4.7 mg/mL
- Description ([11]; pH 5.0 (0.05 M Sodium acetate)): Gel
- Approximate Solubility ([11]; pH 5.0 (0.05 M Sodium acetate)): 0.8 mg/mL
- Description ([11]; pH 5.0 (0.1 M Sodium acetate)): Gel
- Approximate Solubility ([11]; pH 5.0 (0.1 M Sodium acetate)): 0.4 mg/mL
- Description ([11]; pH 5.0 (0.5 M Sodium acetate)): Gel
- Approximate Solubility ([11]; pH 5.0 (0.5 M Sodium acetate)): 0.5 mg/mL
- Description [11, 14]: Gel
- Approximate Solubility [11, 14]: 0.4 mg/mL
- Description [11, 15]: Solution
- Approximate Solubility [11, 15]: 13.3 mg/mL

Compound: Gentamicin [reference compound]
- Zone of Inhibition (mm) (average of 3 plates) [1]: 20.27 mm
- Zone of Inhibition (mm) (average of 3 plates) [2]: 21.27 mm
- Zone of Inhibition (mm) (average of 3 plates) [3]: 20.17 mm
- Zone of Inhibition (mm) (average of 3 plates) [4]: 18.03 mm
